The supplement of paper PMC10307832

compound: C1CC(C2=C(C1)C3=C(N2)C=CC(=C3)Cl)C(=O)N [Selisistat] + COc1cc2c(Oc3ccc(NC(=O)C4(C(=O)Nc5ccc(F)cc5)CC4)cc3F)ccnc2cc1OCCCN1CCOCC1 [Foretinib] (partner 0.25 µM); assay: relative viability (nuclei count vs DMSO), 5 days (fraction); higher = more cells survive; details: first compound 0.4 µM
How it was run: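 Relative viability divides the nuclei count in treated wells by that in vehicle wells. Lung cancer cell lines were seeded in 1536-well plates, dosed by pin tool the next day, and fixed and stained after 5 days in one step with final 0.05% Triton X-100, 1% formaldehyde and 1 ug/ml Hoechst. Dosing was a single drug or a fixed anchor-drug dose plus five library-drug doses (not always all listed) in √10 steps, and values are medians of duplicate plates imaged at 4×.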

Row | Cell Line | relative viability
1 | HOP-62 | 1.09
2 | LU99A | 0.825
3 | BEN | 0.575
4 | HARA | 0.865
5 | HCC-78 | 0.497
6 | NCI-H322M | 0.953
7 | LCLC-97TM1 | 0.861
8 | A-427 | 1.02
9 | NCI-H441 | 0.936
10 | NCI-H1734 | 0.956
11 | NCI-H460 | 1.01
12 | NCI-H2347 | 0.918
13 | NCI-H1395 | 1.01
14 | 201T | 1.06
15 | NCI-H1915 | 1.11
16 | HCC-827 | 1.17
17 | LXF-289 | 1.03

Row | Cell Line | relative viability
18 | NCI-H23 | 0.579
19 | NCI-H647 | 1.18
20 | CAL-12T | 1.12
21 | NCI-H1651 | 0.785
22 | EPLC-272H | 0.849
23 | NCI-H1355 | 0.933
24 | NCI-H3122 | 0.996
25 | NCI-H1437 | 1.29
26 | NCI-H1755 | 0.985
27 | HCC-15 | 1.21
28 | NCI-H1793 | 0.386
29 | PC-14 | 0.946
30 | EKVX | 0.808
31 | LC-2-ad | 1.14
32 | NCI-H1944 | 0.948
33 | NCI-H1975 | 0.983
34 | RERF-LC-KJ | 0.902

same assay, conditions: first compound 1.265 µM

Row | Cell Line | relative viability
35 | HOP-62 | 1.19
36 | LU99A | 0.744
37 | BEN | 0.553
38 | HARA | 0.905
39 | HCC-78 | 0.567
40 | NCI-H322M | 1.01
41 | LCLC-97TM1 | 0.849
42 | A-427 | 0.976
43 | NCI-H441 | 1.12
44 | NCI-H1734 | 0.822
45 | NCI-H460 | 0.969
46 | NCI-H2347 | 1.04
47 | NCI-H1395 | 0.993
48 | 201T | 1.03
49 | NCI-H1915 | 1.05
50 | HCC-827 | 1.09
51 | LXF-289 | 1.02

Row | Cell Line | relative viability
52 | NCI-H23 | 0.779
53 | NCI-H647 | 1.13
54 | CAL-12T | 1
55 | NCI-H1651 | 0.693
56 | EPLC-272H | 0.662
57 | NCI-H1355 | 0.991
58 | NCI-H3122 | 0.942
59 | NCI-H1437 | 1.21
60 | NCI-H1755 | 1.04
61 | HCC-15 | 0.996
62 | NCI-H1793 | 0.681
63 | PC-14 | 0.982
64 | EKVX | 0.83
65 | NCI-H1944 | 0.854
66 | NCI-H1975 | 0.84
67 | RERF-LC-KJ | 0.783

same assay, conditions: first compound 4 µM

Row | Cell Line | relative viability
68 | HOP-62 | 1.17
69 | LU99A | 0.774
70 | BEN | 0.373
71 | HARA | 0.773
72 | HCC-78 | 0.414
73 | NCI-H322M | 0.884
74 | A-427 | 1.02
75 | NCI-H441 | 0.961
76 | NCI-H1734 | 0.868
77 | NCI-H460 | 0.967
78 | NCI-H1395 | 0.909
79 | 201T | 0.997
80 | NCI-H1915 | 1.14
81 | HCC-827 | 1.02
82 | LXF-289 | 0.868
83 | NCI-H23 | 0.805
84 | NCI-H647 | 1.19
85 | CAL-12T | 1
86 | NCI-H1651 | 0.864
87 | NCI-H1355 | 0.955
88 | NCI-H3122 | 0.881
89 | NCI-H1437 | 1.33
90 | NCI-H1755 | 0.948
91 | PC-14 | 0.826
92 | EKVX | 0.595
93 | LC-2-ad | 0.706
94 | NCI-H1975 | 0.896
95 | RERF-LC-KJ | 0.84

same assay, conditions: first compound 12.65 µM

Row | Cell Line | relative viability
96 | HOP-62 | 0.97
97 | LU99A | 0.773
98 | BEN | 0.558
99 | HARA | 0.839
100 | HCC-78 | 0.562
101 | NCI-H322M | 1.13
102 | LCLC-97TM1 | 0.907
103 | A-427 | 1.12
104 | NCI-H441 | 0.951
105 | NCI-H1734 | 0.889
106 | NCI-H460 | 1.01
107 | NCI-H2347 | 1.06
108 | NCI-H1395 | 1.03
109 | 201T | 0.986
110 | NCI-H1915 | 1.06
111 | HCC-827 | 0.9
112 | LXF-289 | 0.947

Row | Cell Line | relative viability
113 | NCI-H23 | 0.935
114 | NCI-H647 | 1.16
115 | CAL-12T | 1.03
116 | NCI-H1651 | 0.897
117 | EPLC-272H | 0.566
118 | NCI-H1355 | 0.99
119 | NCI-H3122 | 0.97
120 | NCI-H1437 | 1.06
121 | NCI-H1755 | 0.923
122 | HCC-15 | 1.05
123 | NCI-H1793 | 0.724
124 | PC-14 | 0.908
125 | EKVX | 0.866
126 | LC-2-ad | 0.918
127 | NCI-H1944 | 0.857
128 | NCI-H1975 | 0.815
129 | RERF-LC-KJ | 0.829

same assay, conditions: first compound 40 µM

Row | Cell Line | relative viability
130 | HOP-62 | 1.12
131 | LU99A | 0.801
132 | BEN | 0.468
133 | HARA | 0.512
134 | HCC-78 | 0.592
135 | NCI-H322M | 1.11
136 | LCLC-97TM1 | 0.862
137 | A-427 | 0.984
138 | NCI-H441 | 0.817
139 | NCI-H1734 | 0.815
140 | NCI-H460 | 1.05
141 | NCI-H2347 | 0.989
142 | NCI-H1395 | 0.878
143 | 201T | 1.11
144 | NCI-H1915 | 1.18
145 | HCC-827 | 1.08
146 | LXF-289 | 0.997

Row | Cell Line | relative viability
147 | NCI-H23 | 0.565
148 | NCI-H647 | 1.25
149 | CAL-12T | 1.03
150 | NCI-H1651 | 0.739
151 | EPLC-272H | 0.631
152 | NCI-H1355 | 0.993
153 | NCI-H3122 | 1.03
154 | NCI-H1437 | 1
155 | NCI-H1755 | 0.977
156 | HCC-15 | 1.21
157 | NCI-H1793 | 0.528
158 | PC-14 | 0.946
159 | EKVX | 0.867
160 | LC-2-ad | 0.889
161 | NCI-H1944 | 0.808
162 | NCI-H1975 | 0.706
